Data: US12091405B2, “Substituted pyrazole compounds as indoleamine 2,3-dioxygenase inhibitors” (Merck Sharp & Dohme LLC, priority 2018, dated 2024)

target: IDO1 (Homo sapiens, UniProt P14902); assay: IDO1 Cellular Assay in HeLa Cells Stimulated with IFNγ; type: cell-based; details: IFNγ 100 ng/mL, 300 uM L-tryptophan, about 48 hours, fluorescence readout, read-out: IDO1 HELA Cell Assay, IC50
Sequence (P14902 whole entry): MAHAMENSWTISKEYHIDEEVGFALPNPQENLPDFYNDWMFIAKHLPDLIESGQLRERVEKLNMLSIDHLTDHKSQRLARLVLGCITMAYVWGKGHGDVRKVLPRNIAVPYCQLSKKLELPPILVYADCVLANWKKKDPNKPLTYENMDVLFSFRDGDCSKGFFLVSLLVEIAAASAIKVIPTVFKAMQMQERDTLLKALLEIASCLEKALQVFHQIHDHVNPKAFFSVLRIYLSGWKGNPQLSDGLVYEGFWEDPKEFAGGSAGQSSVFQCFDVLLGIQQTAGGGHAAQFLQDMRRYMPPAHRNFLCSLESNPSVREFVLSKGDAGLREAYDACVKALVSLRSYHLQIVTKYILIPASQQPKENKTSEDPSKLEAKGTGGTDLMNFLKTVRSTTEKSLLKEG

Structure (SMILES)	IC50
Cc1ccc(C2CCN(C(=O)Cn3nc(C(=O)N4C[C@@H](C)O[C@@H](C)C4)c4c3CCC4)CC2)c(C)c1 [Example 105, 2-{3-[(2R,6S)-2,6-dimethylmorpholine-4-carbonyl]-5,6-dihydrocyclopenta[c]pyrazol-1(4H)-yl}-1-[4-(2,4-dimethylphenyl)piperidin-1-yl]ethan-1-one]	30.3 nM
Cc1cc(Cl)ccc1C1CCN(C(=O)Cn2nc(C(=O)N3C[C@@H](C)O[C@@H](C)C3)c3c2CCC3)CC1 [Example 106, 1-[4-(4-chloro-2-methylphenyl)piperidin-1-yl]-2-{3-[(2R,6S)-2,6-dimethylmorpholine-4-carbonyl]-5,6-dihydrocyclopenta[c]pyrazol-1(4H)-yl}ethan-1-one]	30.3 nM
C[C@@H]1CN(C(=O)c2nn(CC(=O)N3CCC(c4cccc(Cl)c4)CC3)c3c2CCC3)C[C@H](C)O1 [Example 107, 1-[4-(3-chlorophenyl)piperidin-1-yl]-2-{3-[(2R,6S)-2,6-dimethylmorpholine-4-carbonyl]-5,6-dihydrocyclopenta[c]pyrazol-1(4H)-yl}ethan-1-one]	31.5 nM
COc1cccc(C2CCN(C(=O)Cn3nc(C(=O)N4C[C@@H](C)O[C@@H](C)C4)c4c3CCC4)CC2)c1 [Example 108, 2-{3-[(2R,6S)-2,6-dimethylmorpholine-4-carbonyl]-5,6-dihydrocyclopenta[c]pyrazol-1(4H)-yl}-1-[4-(3-methoxyphenyl)piperidin-1-yl]ethan-1-one]	37.9 nM
CCc1ccccc1C1CCN(C(=O)Cn2nc(C(=O)N3C[C@@H](C)O[C@@H](C)C3)c3c2CCC3)CC1 [Example 109, 2-{3-[(2R,6S)-2,6-dimethylmorpholine-4-carbonyl]-5,6-dihydrocyclopenta[c]pyrazol-1(4H)-yl}-1-[4-(2-ethylphenyl)piperidin-1-yl]ethan-1-one]	38.2 nM
COc1c(F)cc(F)cc1C1CCN(C(=O)Cn2nc(C(=O)N3C[C@@H](C)O[C@@H](C)C3)c3c2CCC3)CC1 [Example 110, 1-[4-(3,5-difluoro-2-methoxyphenyl)piperidin-1-yl]-2-{3-[(2R,6S)-2,6-dimethylmorpholine-4-carbonyl]-5,6-dihydrocyclopenta[c]pyrazol-1(4H)-yl}ethan-1-one]	39.3 nM
Cc1ccc(C2CCN(C(=O)Cn3nc(C(=O)N4C[C@@H](C)O[C@@H](C)C4)c4c3CCC4)CC2)cc1Cl [Example 111, 1-[4-(3-chloro-4-methylphenyl)piperidin-1-yl]-2-{3-[(2R,6S)-2,6-dimethylmorpholine-4-carbonyl]-5,6-dihydrocyclopenta[c]pyrazol-1(4H)-yl}ethan-1-one]	40.3 nM
C[C@@H]1CN(C(=O)c2nn(CC(=O)N3CCC(c4ccc(Cl)c(F)c4)CC3)c3c2CCC3)C[C@H](C)O1 [Example 112, 1-[4-(4-chloro-3-fluorophenyl)piperidin-1-yl]-2-{3-[(2R,6S)-2,6-dimethylmorpholine-4-carbonyl]-5,6-dihydrocyclopenta[c]pyrazol-1(4H)-yl}ethan-1-one]	40.6 nM
C[C@@H]1CN(C(=O)c2nn(CC(=O)N3CCC(c4ccccc4C4CC4)CC3)c3c2CCC3)C[C@H](C)O1 [Example 113, 1-[4-(2-cyclopropylphenyl)piperidin-1-yl]-2-{3-[(2R,6S)-2,6-dimethylmorpholine-4-carbonyl]-5,6-dihydrocyclopenta[c]pyrazol-1(4H)-yl}ethan-1-one]	42.6 nM
C[C@@H]1CN(C(=O)c2nn(CC(=O)N3CCC(c4ccc(Cl)cc4)CC3)c3c2CCC3)C[C@H](C)O1 [Example 114, 1-[4-(4-chlorophenyl)piperidin-1-yl]-2-{3-[(2R,6S)-2,6-dimethylmorpholine-4-carbonyl]-5,6-dihydrocyclopenta[c]pyrazol-1(4H)-yl}ethan-1-one]	45.8 nM
COc1c(F)cccc1C1CCN(C(=O)Cn2nc(C(=O)N3C[C@@H](C)O[C@@H](C)C3)c3c2CCC3)CC1 [Example 115, 2-{3-[(2R,6S)-2,6-dimethylmorpholine-4-carbonyl]-5,6-dihydrocyclopenta[c]pyrazol-1(4H)-yl}-1-[4-(3-fluoro-2-methoxyphenyl)piperidin-1-yl]ethan-1-one]	48.5 nM
Cc1cc(C2CCN(C(=O)Cn3nc(C(=O)N4C[C@@H](C)O[C@@H](C)C4)c4c3CCC4)CC2)cc(C)c1Cl [Example 116, 1-[4-(4-chloro-3,5-dimethylphenyl)piperidin-1-yl]-2-{3-[(2R,6S)-2,6-dimethylmorpholine-4-carbonyl]-5,6-dihydrocyclopenta[c]pyrazol-1(4H)-yl}ethan-1-one]	48.6 nM
C[C@@H]1CN(C(=O)c2nn(CC(=O)N3CCC(c4cc(F)cc(F)c4F)CC3)c3c2CCC3)C[C@H](C)O1 [Example 117, 2-{3-[(2R,6S)-2,6-dimethylmorpholine-4-carbonyl]-5,6-dihydrocyclopenta[c]pyrazol-1(4H)-yl}-1-[4-(2,3,5-trifluorophenyl)piperidin-1-yl]ethan-1-one]	48.9 nM
C[C@@H]1CN(C(=O)c2nn(CC(=O)N3CCC(c4cccc(F)c4C(F)(F)F)CC3)c3c2CCC3)C[C@H](C)O1 [Example 118, 2-{3-[(2R,6S)-2,6-dimethylmorpholine-4-carbonyl]-5,6-dihydrocyclopenta[c]pyrazol-1(4H)-yl}-1-{4-[3-fluoro-2-(trifluoromethyl)phenyl]piperidin-1-yl}ethan-1-one]	49.8 nM
Cc1ccc(F)c(C2CCN(C(=O)Cn3nc(C(=O)N4C[C@@H](C)O[C@@H](C)C4)c4c3CCC4)CC2)c1 [Example 119, 2-{3-[(2R,6S)-2,6-dimethylmorpholine-4-carbonyl]-5,6-dihydrocyclopenta[c]pyrazol-1(4H)-yl}-1-[4-(2-fluoro-5-methylphenyl)piperidin-1-yl]ethan-1-one]	52.1 nM
Cc1ccc(C2CCN(C(=O)Cn3nc(C(=O)N4C[C@@H](C)O[C@@H](C)C4)c4c3CCC4)CC2)cc1C(F)(F)F [Example 120, 2-{3-[(2R,6S)-2,6-dimethylmorpholine-4-carbonyl]-5,6-dihydrocyclopenta[c]pyrazol-1(4H)-yl}-1-{4-[4-methyl-3-(trifluoromethyl)phenyl]piperidin-1-yl}ethan-1-one]	52.5 nM
C[C@@H]1CN(C(=O)c2nn(CC(=O)N3CCC(c4cccc(F)c4F)CC3)c3c2CCC3)C[C@H](C)O1 [Example 121, 1-[4-(2,3-difluorophenyl)piperidin-1-yl]-2-{3-[(2R,6S)-2,6-dimethylmorpholine-4-carbonyl]-5,6-dihydrocyclopenta[c]pyrazol-1(4H)-yl}ethan-1-one]	53.2 nM
Cc1c(Cl)cc(Cl)cc1C1CCN(C(=O)Cn2nc(C(=O)N3C[C@@H](C)O[C@@H](C)C3)c3c2CCC3)CC1 [Example 122, 1-[4-(3,5-dichloro-2-methylphenyl)piperidin-1-yl]-2-{3-[(2R,6S)-2,6-dimethylmorpholine-4-carbonyl]-5,6-dihydrocyclopenta[c]pyrazol-1(4H)-yl}ethan-1-one]	54.5 nM
C[C@@H]1CN(C(=O)c2nn(CC(=O)N3CCC(c4ccc(Cl)c(Cl)c4)CC3)c3c2CCC3)C[C@H](C)O1 [Example 123, 1-[4-(3,4-dichlorophenyl)piperidin-1-yl]-2-{3-[(2R,6S)-2,6-dimethylmorpholine-4-carbonyl]-5,6-dihydrocyclopenta[c]pyrazol-1(4H)-yl}ethan-1-one]	54.5 nM
